The nature of series [1]: Pharmacokinetic study in mice, plasma by LC-MS/MS. In kind it is in vivo, female C57BL/6 mice. To be noted: ip. The protocol: Samples (plasma) were collected after 15, 30, 60 and 120 min of drug administration.
All samples were analyzed by an LC-MS/MS bioanalytical methodology.

Series [2] concerns human mesenchymal stem cells (WJ-MSCs). Put plainly: MTT viability assay, toxicity to normal cells. In kind it is cell-based. To be noted: 48 h growth in presence of drug, MTT assay (Figure 1).
From the text: Thus, human mesenchymal stem cells were extracted from Wharton's jelly (matrix) of the human fetal umbilical cord, also known as Wharton's Jelly Mesenchymal Stem cells (WJ-MSCs), from full-term pregnancies, as described in Christodoulou et al. [2022] and Goulielmaki et al. [2019].
WJ-MSCs up to seventh passage were used for this in vitro assay (b22 population doublings). The mean population doubling time (PDT) was 32+/- hours and cells maintained a consistent MSC immunophenotypic profile. […]
Cell viability of (WJ-MSCs) was determined colorimetrically in a 96-well plate assay, using the tetrazolium compound MTS (3-[4,5,dimethylthiazol-2-yl]-5-[3-carboxymethoxy-phenyl]-2-[4-sulfophenyl]-2H-tetrazolium, inner salt), which is bioreduced by cells into a colored formazan product that is soluble in tissue culture medium. […]
At a concentration of 3.5x10^2 cells/200 µL culture medium/well (37 °C, 5% CO2), WJ-MSCs were plated into 96-well microtiter plates. […] At the end, the absorbance was measured at 490nm (with 650nm as a reference wavelength) in a microplate reader (monochromator) [Monochro-mator Microplate Reader safire2 TECAN AUSTRIA GMBH/Measurement parameter Editor Magellan (version 6)].
The test system of the next series is MCF-7. Put plainly: MTT viability assay, MCF-7. In kind it is cell-based, human.
Another series deals with HCT-116. Put plainly: MTT viability assay, HCT-116. In kind it is cell-based. As to conditions: 72h, human colon cancer cells, biotin receptor-negative (Table 3a).
In another series the test system is A549. Put plainly: Platinum cell uptake by mass cytometry (CyTOF), A549. In kind it is cell-based. To be noted: 50 µM, 60 min, in comparison to carboplatin (Figure 2). The protocol: (§1) Cell cultures: Cancer cell lines, SkBr3, MDA-MB-231, MCF-7 and A549, which overexpress biotin receptors on their surface membranes, were each independently cultured in Dulbecco's Modified Eagle Medium (DMEM), supplemented with 10% fetal bovine serum (FBS), penicillin (100 µ/mL) and streptomycin (100 µg/mL) at 37 °C and 5% CO2.
(§2) For MCF-7, MDA-MB-231 and SkBr3 cell lines, an additional step was performed by preincubating for 15 min with 10-100 µM biotin. The quantification was performed by means of mass cytometry. Cell singlet discrimination - staining protocol B of the mass cytometer supplier (Fluidigm) was followed.
(§3) Medium was removed from cultures and cells were pelleted at 1500 rpm. Resuspension of cells was performed in an appropriate volume of RPMI 1640 or DMEM medium to obtain a density of about 1.5-3 x 10^6 cells per mL. Cells were fractionated and treated with different concentrations of each drug or maintained as is (control). […] Suspensions were incubated for 60 min at 37 °C and 5% CO2. Suspensions used to evaluate the effect of biotin in platinum cellular uptake, were preincubated with 100 µM biotin for 15 min before the treatment with each drug. […] A small volume of suspensions was maintained to quantify cells using Trypan blue staining. […]

The subject of series [3] is MDA-MB-231. As to the kind of experiment: Platinum cell uptake by mass cytometry (CyTOF), MDA-MB-231. In kind it is cell-based. As to conditions: 50 µM, 60 min, in comparison to carboplatin (Figure 2). The protocol:
as §1, §2, §3

The next series relates to SkBr3. Put plainly: Platinum cell uptake by mass cytometry (CyTOF), SkBr3. In kind it is cell-based. As to conditions: for cellular uptake (CyTOF Pt195 signal): 50 µM, 60 min, in comparison to 50 µM carboplatin (Figure 3). The protocol: as §1, §2
Medium was removed from cultures and cells were pelleted at 1500 rpm. Resuspension of cells was performed in an appropriate volume of RPMI 1640 or DMEM medium to obtain a density of about 1.5-3 x 10^6 cells per mL. Cells were fractionated and treated with different concentrations of each drug or maintained as is (control). […] Suspensions were incubated for 60 min at 37 °C and 5% CO2. Suspensions used to evaluate the effect of biotin in platinum cellular uptake, were preincubated with 100 µM biotin for 15 min before the treatment with each drug. After incubation, cells were stained using Maxpar cell staining buffer (MCSB) and then fixed using 1.6% paraformaldehyde in PBS for 10 min at room temperature. Incubation with intercalator 103Rh diluted in Maxpar fix-perm buffer was performed overnight at 4 °C. Cells were washed twice with MCSB, samples were pelleted and resuspended in cell acquisition solution (CAS). A small volume of suspensions was maintained to quantify cells using Trypan blue staining. As last step, each sample was diluted with CAS and calibration beads that include metal isotopes.

The nature of the next series: Solubility. To be noted: DMF.
The test system of series [4] is MDA-MB-231. As to the kind of experiment: MTT viability assay, MDA-MB-231. In kind it is cell-based, human. To be noted: 72h (Table 3b). In general terms: Tetrazolium dyes change colour on reduction, which living cells bring about.
Series [5] has as its system SkBr3 human breast cancer cells. Put plainly: MTT viability assay, SkBr3. As to conditions: 72h (Table 3b). In kind it is cell-based.
Where [6] appears, read: 72h, with addition of 10 µM D-(+)-Biotin (Table 2b), read-out: MCF-7 and biotin IC50.
Where [7] appears, read: 72h, without biotin (Table 2b), read-out: MCF-7 IC50.

Several values for one entry are separate records, joined by “and”; a condition that tells them apart may be missing. Equal entries are not always repeated. Where two headings read alike, the source gives them in different places.

The term Cmax denotes the maximum level reached in the sampled fluid or tissue. `[NH3+][Pt-2]1([NH3+])[O]C(=O)C2(CCC2)C(=O)[O]1` [Carboplatin] had a peak concentration (Cmax) in [1] (mouse, 60 mg/kg) of 131 ± 50 µM. Also, the AUC at 2 h in series [1] (mouse, 60 mg/kg, read-out: Areas under the curve (AUCs) (converted)) is 69.4 µM·h. The “concentration at which less than 50% viability is reached” value in series [2] amounted to 100 µM.

One may read the IC50 as the concentration that inhibits the measured activity by half. `N.N.[Cl][Pt][Cl]` [Cisplatin, reference compound]: the IC50 in the series with MCF-7 (setting [6]) was 12 µM; with MCF-7 (setting [7]), 9 µM; in the series with HCT-116, 7 µM and 8 µM.

For `C[C@@H]1[NH2+][Pt-2]([Cl])([Cl])[NH2+][C@@H]1CCCCCC(=O)O` [PMX114, (7R,8S)-7,8-diaminononanoic acid dichloroplatinum(II)], the “platinum uptake (CyTOF Pt195 signal)” value with A549 and in the series on MDA-MB-231 [3] was “significantly greater” in each case. Further, the AUC in series [1] (female, C57BL/6, mouse, 75 mg/kg, read-out: Areas under the curve (AUCs) (converted)) is 42.1 µM·h. In addition, the “concentration at which less than 50% viability is reached” value in series [2] is given as more than 300 µM. In addition, in the series with SkBr3, the “cellular uptake (CyTOF Pt195 signal)” value is recorded as “significantly greater”. Also, the “effect of biotin preincubation on platinum entry” value in the series with SkBr3 (preincubation with 100 µM of biotin for 15 min, then 50 µM drug) is reported as “inhibition of platinum entry”. Further, the Solubility result in “Solubility” is listed as “good”.

Consider `CC(N)C(N)CCCCCC(=O)O.O=C1[O][Pt][O]C1=O` [PMX118, (7R,8S)-7,8-diaminononanoic acid oxalatoplatinum(ll)], for which the IC50 in the series on MCF-7 (72h (Table 3b), read-out: MCF-7 IC50) was 100 µM; in the series on MCF-7 (setting [6]), 290 µM; with MCF-7 (setting [7]), 133 µM; in the series with MDA-MB-231 [4], 116 µM and 144 µM; in the series on HCT-116, 225 µM and > 250 µM; in series [5], 225 µM and > 250 µM. Moreover, in the series with SkBr3, the “cellular uptake (CyTOF Pt195 signal)” value was “significantly greater”.

The record behind these values is patent publication EP4461293B1, “BIOTIN RECEPTOR-BINDING […] COMPOUNDS” (Biomedical Research Foundation Academy of Athens, priority 2023, dated 2024).
